Results as given in patent publication US20220315554A1, “COMPOUNDS COMPRISING A […] LIGAND AND USE THEREOF” (priority 2019, published 2022).
Numbered stars: 1 amine (or outer) side, 2 acyl side, 3 side chain; on linkers, the order of the positions; unused ones are H or OH. Bridge positions count the residues as written; N and C are the ends. Square brackets hold non-standard residues; d marks the D form. Peptide text beside a SMILES is read from it. * marks the point of attachment. X6 = NC(=O)[C@H](CCCCNC(=O)CCCC[C@@H]1SC[C@@H]2NC(=O)N[C@@H]21)NC(=O)CCC(=O)NCCCOCCOCCOCCCN*; mXylylene = c1cc(C[*:1])cc(C[*:2])c1; αMeF = C[C@](N)(Cc1ccccc1)C(=O)O; Hexanoyl = CCCCCC(=O)*

How the values were obtained:
[1] = biological target: T1, FAP-expressing human WI-38 fibroblasts (Homo sapiens, UniProt Q12884); test: Competitive FACS binding assay; conditions: pIC50 Category (FACS), competition with 3 nM Cy5-labeled compound, WI-38 fibroblasts, 4° C., 1 hour
T1 construct: FAP-expressing human WI-38 fibroblasts (ECACC) were cultured in EMEM; host or cells: WI-38 human fibroblasts
T1 sequence (Q12884 1-760): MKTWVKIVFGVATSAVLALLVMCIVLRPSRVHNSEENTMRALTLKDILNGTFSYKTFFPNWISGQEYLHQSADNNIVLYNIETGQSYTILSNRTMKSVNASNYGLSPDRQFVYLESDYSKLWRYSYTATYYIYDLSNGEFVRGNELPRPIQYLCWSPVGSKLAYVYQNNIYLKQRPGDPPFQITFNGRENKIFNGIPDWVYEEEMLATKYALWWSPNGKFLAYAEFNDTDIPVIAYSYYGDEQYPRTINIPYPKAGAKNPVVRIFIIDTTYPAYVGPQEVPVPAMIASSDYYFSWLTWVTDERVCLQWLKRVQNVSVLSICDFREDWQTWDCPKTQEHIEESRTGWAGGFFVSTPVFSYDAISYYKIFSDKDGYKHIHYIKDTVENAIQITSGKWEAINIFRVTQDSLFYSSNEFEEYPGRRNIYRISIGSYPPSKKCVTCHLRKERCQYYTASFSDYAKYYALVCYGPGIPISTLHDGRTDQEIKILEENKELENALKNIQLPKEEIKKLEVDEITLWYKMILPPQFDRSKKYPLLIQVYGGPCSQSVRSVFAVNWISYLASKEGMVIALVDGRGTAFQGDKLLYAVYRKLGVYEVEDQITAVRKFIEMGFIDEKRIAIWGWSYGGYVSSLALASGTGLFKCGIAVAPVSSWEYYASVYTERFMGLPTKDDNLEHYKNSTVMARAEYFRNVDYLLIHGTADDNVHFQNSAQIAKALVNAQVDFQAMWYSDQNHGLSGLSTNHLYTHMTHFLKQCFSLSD
Method: Cells were analyzed in an Attune NxT flow cytometer. […]

Human recombinant FAP [2] = biological target: T2, Human recombinant FAP (Homo sapiens, UniProt Q12884); test: FRET-based FAP protease activity assay; type: biochemical; parameters: purchased R&D systems 3715-SE; conditions: pIC50 Category (Activity), recombinant human FAP, FRET substrate, 37° C.
T2 sequence (Q12884 1-760): T1 sequence (Q12884 1-760)

Recombinant human DPP4 = biological target: T3, Recombinant human DPP4 (Homo sapiens, UniProt P27487); test: DPP4 protease activity assay; type: biochemical
T3 construct: purchased R&D systems 9168-SE

recombinant human PREP = biological target: T4, recombinant human PREP (Homo sapiens, UniProt P48147); test: PREP protease activity assay; type: biochemical
T4 construct: purchased R&D systems 4308-SE
T4 sequence (P48147 1-710): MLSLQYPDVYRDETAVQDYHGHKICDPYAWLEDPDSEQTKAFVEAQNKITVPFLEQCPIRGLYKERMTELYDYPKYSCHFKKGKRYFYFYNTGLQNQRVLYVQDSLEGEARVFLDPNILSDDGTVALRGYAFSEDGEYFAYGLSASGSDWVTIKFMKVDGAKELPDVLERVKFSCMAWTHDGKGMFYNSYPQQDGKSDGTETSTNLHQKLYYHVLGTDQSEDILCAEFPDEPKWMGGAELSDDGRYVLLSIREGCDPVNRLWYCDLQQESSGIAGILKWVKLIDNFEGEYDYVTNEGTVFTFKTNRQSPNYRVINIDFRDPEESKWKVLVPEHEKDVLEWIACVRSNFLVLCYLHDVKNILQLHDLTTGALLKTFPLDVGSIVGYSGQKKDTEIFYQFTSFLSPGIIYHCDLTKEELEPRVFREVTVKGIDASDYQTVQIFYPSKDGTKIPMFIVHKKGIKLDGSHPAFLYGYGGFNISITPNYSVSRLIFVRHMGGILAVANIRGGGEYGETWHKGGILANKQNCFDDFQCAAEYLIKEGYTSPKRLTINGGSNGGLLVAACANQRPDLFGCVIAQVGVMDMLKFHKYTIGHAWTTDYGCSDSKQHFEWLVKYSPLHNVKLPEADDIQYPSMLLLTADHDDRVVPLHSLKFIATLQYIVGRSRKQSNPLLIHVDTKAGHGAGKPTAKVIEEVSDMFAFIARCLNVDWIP

Human recombinant FAP [3] = biological target: T2, Human recombinant FAP; test: Surface plasmon resonance (Biacore) assay; type: binding
[4] = Plasma stability assay, mouse plasma; type: in vitro ADME; conditions: 4 h incubation, 37° C., read-out: % intact compound remaining after incubation, Mouse plasma

T3 sequence (P27487 whole entry): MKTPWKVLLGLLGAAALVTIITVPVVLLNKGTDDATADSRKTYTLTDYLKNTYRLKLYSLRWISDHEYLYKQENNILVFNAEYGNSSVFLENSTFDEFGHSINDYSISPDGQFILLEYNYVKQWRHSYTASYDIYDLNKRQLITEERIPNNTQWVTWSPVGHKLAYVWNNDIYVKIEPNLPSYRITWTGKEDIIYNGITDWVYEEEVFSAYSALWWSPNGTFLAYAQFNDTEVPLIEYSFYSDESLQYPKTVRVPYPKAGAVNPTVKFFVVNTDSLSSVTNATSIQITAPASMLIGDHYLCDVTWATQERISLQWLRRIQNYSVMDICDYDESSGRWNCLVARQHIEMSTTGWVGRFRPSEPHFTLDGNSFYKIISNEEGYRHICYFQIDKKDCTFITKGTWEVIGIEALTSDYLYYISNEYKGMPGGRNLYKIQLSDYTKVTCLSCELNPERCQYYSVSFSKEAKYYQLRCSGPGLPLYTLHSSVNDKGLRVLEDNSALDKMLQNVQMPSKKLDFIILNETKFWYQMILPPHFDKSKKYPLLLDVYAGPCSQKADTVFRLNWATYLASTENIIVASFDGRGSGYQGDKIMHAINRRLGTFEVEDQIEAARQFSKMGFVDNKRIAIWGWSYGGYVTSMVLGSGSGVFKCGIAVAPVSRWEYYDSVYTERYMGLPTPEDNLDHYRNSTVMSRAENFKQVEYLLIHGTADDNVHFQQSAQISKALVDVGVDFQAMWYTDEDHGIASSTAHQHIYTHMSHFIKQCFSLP

| Compound | IC50 [1] | IC50 (Human recombinant FAP [2]) | IC50 (Recombinant human DPP4) | IC50 (recombinant human PREP) | Kd (Human recombinant FAP [3]) | remaining at 4 h, 9.8 µM [4] |
| --- | --- | --- | --- | --- | --- | --- |
| CSCC[C@H](N)C(=O)N[C@H]1CSCc2cccc(c2)CSC[C@@H](C(=O)N[C@@H](CC(=O)O)C(=O)N[C@@H](Cc2c[nH]cn2)C(=O)N[C@@H](Cc2ccccc2)C(=O)N[C@@H](CCCNC(=N)N)C(=O)N[C@@H](CC(=O)O)C(=O)NCCCOCCOCCOCCCNC(=O)CCC(=O)N[C@@H](CCCCNC(=O)CCCC[C@@H]2SC[C@@H]3NC(=O)N[C@@H]32)C(N)=O)NC(=O)[C@H](Cc2ccccc2)NC(=O)[C@H](CCC(=O)O)NC(=O)[C@H]([C@@H](C)O)NC(=O)[C@@H]2CCCN2C(=O)[C@@H]2CCCN2C1=O [3BP-2881, H-Met-[Cys(3MeBn)-Pro-Pro-Thr-Glu-Phe-Cys]-Asp-His-Phe-Arg-Asp-Ttds-Lys(Bio)-NH2] (H-MCPPTEFCDHFRD-X6; linker 2-8 via mXylylene) | < 10 nM | < 10 nM | > 1000 nM | > 1000 nM | – | – |
| CCCCCC(=O)N[C@H]1CSCc2cccc(c2)CSC[C@@H](C(=O)N[C@@H](CC(=O)O)C(=O)N[C@@H](Cc2c[nH]cn2)C(=O)N[C@@H](Cc2ccccc2)C(=O)N[C@@H](CCCNC(=N)N)C(=O)N[C@@H](CC(=O)O)C(N)=O)NC(=O)[C@H](Cc2ccccc2)NC(=O)[C@H](CCC(=O)O)NC(=O)[C@H]([C@@H](C)O)NC(=O)[C@@H]2CCCN2C(=O)[C@@H]2CCCN2C1=O [3BP-2974, Hex-[Cys(3MeBn)-Pro-Pro-Thr-Glu-Phe-Cys]-Asp-His-Phe-Arg-Asp-NH2] (Hexanoyl-CPPTEFCDHFRD-NH2; linker 1-7 via mXylylene) | < 10 nM | < 10 nM | – | – | < 10 nM | 92% |
| CSCC[C@H](NC(C)=O)C(=O)N[C@H]1CSCc2cccc(c2)CSC[C@@H](C(=O)N[C@@H](CC(=O)O)C(=O)N[C@@H](Cc2c[nH]cn2)C(=O)N[C@@H](Cc2ccccc2)C(=O)N[C@@H](CCCNC(=N)N)C(=O)N[C@@H](CC(=O)O)C(N)=O)NC(=O)[C@H](Cc2ccccc2)NC(=O)[C@H](CCC(=O)O)NC(=O)[C@H]([C@@H](C)O)NC(=O)[C@@H]2CCCN2C(=O)[C@@H]2CCCN2C1=O [3BP-2975, Ac-Met-[Cys(3MeBn)-Pro-Pro-Thr-Glu-Phe-Cys]-Asp-His-Phe-Arg-Asp-NH2] (Ac-MCPPTEFCDHFRD-NH2; linker 2-8 via mXylylene) | < 10 nM | < 10 nM | – | – | < 10 nM | 100% |
| CC(=O)N[C@H]1CSCc2cccc(c2)CSC[C@@H](C(=O)N[C@@H](CC(=O)O)C(=O)N[C@@H](Cc2c[nH]cn2)C(=O)N[C@@H](Cc2ccccc2)C(=O)N[C@@H](CCCNC(=N)N)C(=O)N[C@@H](CC(=O)O)C(N)=O)NC(=O)[C@H](Cc2ccccc2)NC(=O)[C@H](CCC(=O)O)NC(=O)[C@H]([C@@H](C)O)NC(=O)[C@@H]2CCCN2C(=O)[C@@H]2CCCN2C1=O [3BP-3202, Ac-[Cys(3MeBn)-Pro-Pro-Thr-Glu-Phe-Cys]-Asp-His-Phe-Arg-Asp-NH2] (Ac-CPPTEFCDHFRD-NH2; linker 1-7 via mXylylene) | < 10 nM | < 10 nM | – | – | < 10 nM | 78% |
| CSCC[C@H](NC(C)=O)C(=O)N[C@H]1CSCc2cccc(c2)CSC[C@@H](C(=O)N[C@@H](CC(=O)O)C(=O)N[C@@H](Cc2c[nH]cn2)C(=O)N[C@@](C)(Cc2ccccc2)C(=O)N[C@@H](CCCNC(=N)N)C(=O)N[C@@H](CC(=O)O)C(N)=O)NC(=O)[C@H](Cc2ccccc2)NC(=O)[C@H](CCC(=O)O)NC(=O)[C@H]([C@@H](C)O)NC(=O)[C@@H]2CCCN2C(=O)[C@@H]2CCCN2C1=O [3BP-3203, Ac-Met-[Cys(3MeBn)-Pro-Pro-Thr-Glu-Phe-Cys]-Asp-His-Amf-Arg-Asp-NH2] (Ac-MCPPTEFCDH[αMeF]RD-NH2; linker 2-8 via mXylylene) | < 10 nM | < 10 nM | – | – | – | 100% |
| CSCC[C@H](NC(C)=O)C(=O)N[C@H]1CSCc2cccc(c2)CSC[C@@H](C(=O)N[C@@H](CC(=O)O)C(=O)N[C@H](Cc2c[nH]cn2)C(=O)N[C@@H](Cc2ccccc2)C(=O)N[C@@H](CCCNC(=N)N)C(=O)N[C@@H](CC(=O)O)C(N)=O)NC(=O)[C@H](Cc2ccccc2)NC(=O)[C@H](CCC(=O)O)NC(=O)[C@H]([C@@H](C)O)NC(=O)[C@@H]2CCCN2C(=O)[C@@H]2CCCN2C1=O [3BP-3210, Ac-Met-[Cys(3MeBn)-Pro-Pro-Thr-Glu-Phe-Cys]-Asp-his-Phe-Arg-Asp-NH2] (Ac-MCPPTEFCD[dH]FRD-NH2; linker 2-8 via mXylylene) | < 10 nM | < 10 nM | – | – | – | 100% |
| CSCC[C@H](NC(C)=O)C(=O)N[C@H]1CSCc2cccc(c2)CSC[C@@H](C(=O)N[C@@H](CC(=O)O)C(=O)N[C@@H](Cc2c[nH]cn2)C(=O)N[C@H](Cc2ccccc2)C(=O)N[C@@H](CCCNC(=N)N)C(=O)N[C@@H](CC(=O)O)C(N)=O)NC(=O)[C@H](Cc2ccccc2)NC(=O)[C@H](CCC(=O)O)NC(=O)[C@H]([C@@H](C)O)NC(=O)[C@@H]2CCCN2C(=O)[C@@H]2CCCN2C1=O [3BP-3211, Ac-Met-[Cys(3MeBn)-Pro-Pro-Thr-Glu-Phe-Cys]-Asp-His-phe-Arg-Asp-NH2] (Ac-MCPPTEFCDH[dF]RD-NH2; linker 2-8 via mXylylene) | < 10 nM | < 10 nM | – | – | – | 85% |
| CSCC[C@H](NC(C)=O)C(=O)N[C@H]1CSCc2cccc(c2)CSC[C@@H](C(=O)N[C@@H](CC(=O)O)C(=O)N[C@@H](Cc2c[nH]cn2)C(=O)N[C@@H](Cc2ccccc2)C(=O)N[C@H](CCCNC(=N)N)C(=O)N[C@@H](CC(=O)O)C(N)=O)NC(=O)[C@H](Cc2ccccc2)NC(=O)[C@H](CCC(=O)O)NC(=O)[C@H]([C@@H](C)O)NC(=O)[C@@H]2CCCN2C(=O)[C@@H]2CCCN2C1=O [3BP-3212, Ac-Met-[Cys(3MeBn)-Pro-Pro-Thr-Glu-Phe-Cys]-Asp-His-Phe-arg-Asp-NH2] (Ac-MCPPTEFCDHF[dR]D-NH2; linker 2-8 via mXylylene) | < 10 nM | < 10 nM | – | – | – | 80% |
| CCCCCC(=O)N[C@H]1CSCc2cccc(c2)CSC[C@@H](C(N)=O)NC(=O)[C@H](Cc2ccccc2)NC(=O)[C@H](CCC(=O)O)NC(=O)[C@H]([C@@H](C)O)NC(=O)[C@@H]2CCCN2C(=O)[C@@H]2CCCN2C1=O [3BP-3287, Hex-[Cys(3MeBn)-Pro-Pro-Thr-Glu-Phe-Cys]-NH2] (Hexanoyl-CPPTEFC-NH2; linker 1-7 via mXylylene) | 100 to 794 nM | 10 to 79.4 nM | > 1000 nM | > 1000 nM | – | – |
| CCCCCC(=O)N[C@H]1CSCc2cccc(c2)CSC[C@@H](C(N)=O)NC(=O)[C@H](Cc2ccccc2)NC(=O)[C@H](CCC(N)=O)NC(=O)[C@H]([C@@H](C)O)NC(=O)[C@@H]2CCCN2C(=O)[C@@H]2CCCN2C1=O [3BP-3349, Hex-[Cys(3MeBn)-Pro-Pro-Thr-Gln-Phe-Cys]-NH2] | 10 to 79.4 nM | < 10 nM | > 1000 nM | > 1000 nM | < 10 nM | – |
